Data as given in US6040149A, “Assay for identifying agents which act on the ceramide-activated protein kinase, kinase suppressor of ras, and methods of using said agents” (priority 1997, dated 2000).

Key:
neutral sphingomyelinase = assay: Sphingomyelin and ceramide concentrations in a cell-free system (HL-60 nuclei-free supernate); assay type: biochemical, human (HL-60 cells)
Method: TNF-α effects on sphingomyelin (A) and ceramide (B) concentrations in a cell-free system. HL-60 cells were grown in RPMI 1640 medium supplemented with 10% bovine calf serum and amino acids. To measure sphingomyelin, cells were resuspended (1×10^6 ml^-1), labeled for 48 hours in medium with [^3 H]choline (1 μCi ml^-1), in serum-free medium containing bovine insulin (5 μg ml^-1) and human transferrin (5 μg ml^-1). After 3 hours, cells were resuspended (150×10^6 ml^-1) in homogenization buffer (50 mM NaF, 5 mM EGTA, and 25 mM Hepes, pH 7.4), disrupted at 4° C. with 150 strokes of a tight-fitting Dounce homogenizer (Fisher Scientific, Pittsburgh, Pa.), and centrifuged for 5 minutes (500 g). The nuclei-free supernate was first incubated for 5 minutes at 4° C. with 30 nM human TNF-α (Genentech, South San Francisco, Calif.) or diluent (50 mM Hepes, pH 7.4). At time zero, 15 μl of supernate (112 μg per incubation) were added to a reaction mixture containing 30 μl of 25 mM Hepes, pH 7.4, 30 μl of 750 μM ATP, and 75 μl of reaction buffer (50 mM Hepes, pH 7.4 and 20 mM MgCl2) at 22° C. The reaction was terminated with CHCl3 :CH3 OH:HCl (100:100:1, v/v/v) and 150 μl of balanced salt solution (135 mM NaCl, 4.5 mM KCl, 1.5 mM CaCl2, 0.5 mM MgCl2, 5.6 mM glucose, and 10 mM Hepes, pH 7.2) containing 20 mM EDTA. Lipids in the organic phase extract were subjected to alkaline methanolysis to remove glycerophospholipids. Sphingomyelin recovery in the nuclei-free supernate was 93% of that in intact cells. A measure of 10^6 cell equivalents of supernate contained 50 μg of protein. Sphingomyelin was resolved by thin-layer chromatography (TLC) with CHCl3 :CH3 OH:CH3 COOH:H2 O (25:15:4:1.5) as solvent, identified by iodine vapor staining and quantified by liquid scintillation spectrometry. Ceramide was quantified with the diacylglycerol kinase reaction. Values (mean) are derived from triplicate determinations from one experiment representative of three similar studies for sphingomyelin and four similar studies for ceramide.
The binding of TNF-α to its receptor is detectable within 2 minutes and maximal by 5 to 10 minutes at 4° C. in membranes derived from HL-60 cells. Therefore, supernates from HL-60 cells, collected after a low-speed centrifugation to remove nuclei, were first incubated with TNF-α for 5 minutes at 4° C. to allow the formation of TNF-receptor complexes. Thereafter, reactions were initiated by warming supernates to 22° C. in a reaction mixture containing adenosine triphosphate (ATP) and Mg^2+ at pH 7.4.
These conditions were adopted to allow for activation of neutral sphingomyelinase. Under these conditions, TNF-α induced a time- and concentration-dependent reduction in sphingomyelin content (FIG. 9A). The effect of TNF-α was evident at 1 minute and maximal by 7.5 minutes. Sphingomyelin concentrations decreased 27% from a control concentration of 10.4±0.5 (mean±SEM) to 7.6±0.2 nmol per milligram (nmol mg^-1) of supernate protein (P<0.001). […] Concentrations of TNF-α of 300 pM were effective, with a maximal effect at 3 nM TNF-α [effective dose (ED50)≈500 pM]. Under the same conditions, ceramide increased quantitatively from 1.8±0.3 to 4.0±0.5 nmol mg^-1 (FIG. 9B). This effect was detectable at 1 minute (P<0.001) and maximal by 7.5 minutes. Thus, 2.8 nmol of sphingomyelin per milligram of supernate protein were lost for each 2.2 nmol of ceramide per milligram of supernate protein that was generated. […] Other choline-containing lipids, including phosphatidyl-choline, lysophosphatidylcholine, sphingosylphosphorylcholine, and 1,2-diacylglycerol were not affected by TNF-α.

[1] = system: ceramide-activated protein kinase; conditions: treatment of intact cells; literature; cited from earlier work
EL-4 cells = assay: Sphingomyelin and ceramide levels in intact EL-4 cells; assay type: cell-based, murine; conditions: maximally effective concentrations (n=5)
Method: IL-1β effects on sphingomyelin levels in EL4 cells. Time course (A) and dose response (B). Cells were grown to growth arrest (1-1.5×10^6 cells ml^-1) in DME/Ham's F12 medium (1:1, v/v) containing 10% horse serum and for 48 hours [^3 H]choline (1 μCi ml^-1). On the day of an experiment, cells were resuspended back into the same medium at 10×10^6 cells ml^-1 and stimulated with 40 ng ml^-1 IL-1β for the indicated times (A) or for 30 minutes with increasing concentrations of IL-1β (B). Human IL-1β may be obtained using methods well known to those skilled in the art. Reactions were terminated with CHCl3 :CH3 OH:HCl (100:100:1) containing 10 mM EDTA (82). Lipids in the organic phase extract were dried under N2 and subjected to mild alkaline hydrolysis (0.1 M methanolic KOH for 1 hour at 37° C.) to remove glycerophospholipids. Sphingomyelin was resolved by thin-layer chromatography (TLC) using CHCl3 :CH3 OH:CH3 COOH:H2 O (60:30:8:5) as solvent, identified by iodine vapor staining, and quantified by liquid scintillation spectrometry. As previously reported, the use of [^3 H]choline as a measure of sphingomyelin content was validated by simultaneous phospholipid phosphorus measurements. Each value represents the mean±SEM of triplicate determinations from four experiments in (A), and one representative of four similar studies performed in triplicate in (B).
Effect of IL-1β on ceramide levels in EL-4 cells. Cells were stimulated as in FIG. 12 with IL-1β (40 ng ml^-1) and ceramide contained within the organic phase extract quantified enzymatically using the E. coli diacylglycerol kinase reaction. Lipids were resolved by TLC using CHCl3 :CH3 OH:CH3 COOH (65/15/5) as solvent, autoradiographed and quantified by liquid scintillation spectrometry. Each value represents the mean±SEM of triplicate determinations from 10 experiments.
The murine thymoma EL-4 cell line is a well-defined IL-1 responsive cell line that expresses functional IL-1 receptors. Upon stimulation with IL-1, these cells up-regulate the IL-2 receptor and secrete IL-2 [62]. Initial studies were designed to investigate the effects of IL-1β on cellular sphingomyelin content. Cells, grown in Dulbecco's Modified Eagle's (DME)/Ham's F-12 medium containing 10% horse serum and [^3 H]choline (1 μCi ml^-1), were resuspended back into the same medium at 10×10^6 cells ml^-1 and stimulated with IL-1β. IL-1β is commercially available.

Compound	effect on other choline-containing lipids and 1,2-diacylglycerol (neutral sphingomyelinase; TNF-α)	decrease in sphingomyelin concentration (neutral sphingomyelinase; TNF-α 30 nM, cell-free) [%]	ceramide generated (neutral sphingomyelinase; TNF-α, cell-free)	sphingomyelin lost (neutral sphingomyelinase; TNF-α, cell-free)	sphingomyelin concentration (neutral sphingomyelinase; after TNF-α, control 10.4±0.5, mean±SEM, P<0.001)	ceramide concentration (neutral sphingomyelinase; after TNF-α, from 1.8±0.3) [nmol/mg]	ED50 (sphingomyelin reduction) (neutral sphingomyelinase; cell-free)	concentration of maximal effect (sphingomyelin reduction) (neutral sphingomyelinase; cell-free) [nM]	effective concentration (sphingomyelin reduction) (neutral sphingomyelinase; cell-free) [pM]	onset of sphingomyelin reduction (neutral sphingomyelinase; cell-free) [min]	time to maximal ceramide increase (neutral sphingomyelinase; cell-free) [min]	time to maximal sphingomyelin reduction (neutral sphingomyelinase; cell-free) [min]	onset of ceramide increase (neutral sphingomyelinase; cell-free, P<0.001) [min]	enhancement of CAP kinase autophosphorylation / activity [1]	ceramide response (EL-4 cells)
TNF-α	not affected	27	2.2 nmol per milligram of supernat	2.8 nmol per milligram of supernat	7.6±0.2 nmol per milligram (nmol mg^-1) of supernate protein	4.0 ± 0.5	≈ 500 pM	3	300	1	≤ 7.5	≤ 7.5	1	5-10 fold	–
CCCCCCCCCCCCCC(=O)O[C@@H]1[C@@H](C)[C@@]2(O)[C@@H](C=C(CO)C[C@]3(O)C(=O)C(C)=C[C@@H]23)[C@@H]2C(C)(C)[C@]12OC(C)=O [TPA, 12-0-tetradecanoylphorbol-13-acetate]	–	–	–	–	–	–	–	–	–	–	–	–	–	–	failed to elicit a ceramide response
